Measurements from patent US8246981B2, “Transdermal method and patch for emesis” (Abeille Pharamaceuticals, Inc., priority 2005, dated 2012).

Conditions: IV bolus, once-daily 2 mg/day
Protocol: A randomized crossover clinical study was conducted in 11 individuals who received either a transdermal patch or an IV solution of granisetron. […] This was followed by a 10 day wash-out period, after which the same individuals received granisetron IV in once-daily dosages of 2 mg/day Individuals who received the IV treatment in the first period received a transdermal patch in the cross over treatment. Blood plasma levels of granisetron for all of the individuals in the test were measured periodically during the 96 hour time that the patches were being worn and the IV dosages were being administered, and for an additional 2 days after the patches were removed and the IV administration discontinued.

Question: For CN1C2CCCC1CC(NC(=O)c1nn(C)c3ccccc13)C2 (stereo not shown) [IV granisetron, granisetron], which “blood plasma level profile” value is on record?
Answer: sharp spikes in blood plasma levels
